Data published in PMC5034043 (The Journal of Biological Chemistry, 2016).
“Also recorded” adds a separate entry of the source.

Legend:
[1] = tested on: alkylphenol-binding proteins within synaptosomes; experiment: Fluorescent profiling: protection from AziPm-click (1) photolabeling of synaptosomes; set-up: species or system mouse; details: propofol 75–375 μM; ketamine 150–450 μM; triplicate
Description: (§1) Synaptosomes were resuspended to 1 mg of protein/ml in HEPES buffer medium (in mM: 140 NaCl, 5 KCl, 5 NaHCO3, 1.2 NaH2PO4, 1 MgCl2, 10 glucose, and 10 HEPES (pH 7.4)). […] The samples were allowed to equilibrate for 5 min before being transferred to a parafilm-sealed 1-mm path length quartz cuvette. The sample was then irradiated for 20 min at a peak bandwidth of 350 nm (Rayonet RPR-3500 lamp) ∼6 cm from the light source. Non-irradiated samples were left in the dark at ambient temperature (22–25 °C) for 20 min. All remaining procedures were conducted with restricted light exposure.

[2] = tested on: GABAA receptor subunits; experiment: Western blotting of streptavidin-captured GABAA receptor subunits with ligand protection; type: binding, mouse; details: AziPm-click (1) 10 μM, protecting ligand 100 μM, UV irradiation; n = 4
Description: as §1
To 750 μg of photolabeled or control synaptosome samples, 40 μl of 10% SDS and 2 μl of 5 mM DTT in water were added. Samples were then vortexed, heated for 10 min at 65 °C, and then briefly cooled. Final concentrations of 150 μM azide-biotin (Click Chemistry Tools), 2 mM tris(3-hydroxypropyltriazolylmethyl)amine (Sigma), 1 mM ascorbic acid (Sigma), and 1 mM CuSO4·5H2O (Sigma) were added to each sample and vortexed vigorously. The samples were left in the dark at ambient temperature (22–25 °C) for 1 h with mild agitation. Directly to each sample 4× volume chilled methanol, 1.5× chilled chloroform, and 3× chilled double distilled H2O were added. Samples were vortexed vigorously and centrifuged at 1,400 × g for 30 min at 4 °C. […]

[3] = at even 100-fold higher concentrations than propofol; cited from earlier work
[4] = tested on: α1β2γ2 GABAA receptors; details: heterologously expressed receptors; cited from earlier work

Structure (SMILES) | fluorescent labeling of synaptosomal proteins by AziPm-click (1) in presence of protecting ligand [1] | protection of GABAA receptor α and β subunits from AziPm-click (1) capture [2] | immobilization [3] | activity on GABAA receptor [4]
CNC1(c2ccccc2Cl)CCCCC1=O (stereo not shown) [ketamine] | no changes in fluorescence intensity | – | – | –
CC(C)c1cccc(C(C)C)c1F [fropofol, 2-fluoro-1,3-diisopropylbenzene] | – | unable to protect | did not cause immobilization | did not modulate or disrupt propofol potentiation; also recorded: no activity
